Results reported in patent US11912970B2, “Universal microfluidic culture system to analyze and control cell dynamics” (The University of Chicago, priority 2017, dated 2024).

What was measured:
[1] = system: Hes5-GFP expression in NSCs; assay: NSCs Hes5-GFP expression under sequential ligand inputs (permutation test and decision tree analysis); format: cell-based, mouse; details: for Hes5 expression relative to control: sequential input
Source text: (§1) Murine hematopoietic stem cells (HSC) are isolated by FACSAria III flow cytometer (BD Biosciences) as Lin−/c-Kit+/Sca-1+/CD48−/CD150+/CD34− (lineage, Lin: CD3e/CD11b/CD19/CD41/B220/Gr-1/Ter-119), which are approximately 50% pure HSCs. Macrophage colony-stimulating factor (M-CSF), a myeloid cytokine released during infection and inflammation, is employed to induce HSCs differentiation. Human CD34+ cells were isolated from mononuclear cells using EasySepTM human CD34 positive selection kit (Stemcell Technologies, Vancouver, BC, Canada). CD34+CD38−CD45RA−CD90+CD49f+ HSCs were sorted using a FACSAria III flow cytometer (BD Biosciences). Pro- and anti-inflammatory cytokines including TNF, IFN[…], IL-6, IP10 and MCP-1 are introduced into the cellular environment as single ligand and in combination. Embryonic NSCs with Hes-GFP and Dcx-RFP reporters were isolated at embryonic day 13.5 from a transgenic mice carrying Hes-GFP and Dcx-RFP using standard protocol (Woo, et al., 2009; Basak, et al., 2007). The resulting primary cells were verified to carry both Hes5-GFP and Dcx-RFP after isolation and allowed to grow for few passages before use in the experiments (Giachino, et al., 2009). NSCs were cultured as neurospheres in culture media (DMEM/F12+Glutamax (Gibco No:31331-028); 10 U/ml penicillin; 10 ug/ml Streptomycin; B27 supplement (1:50); FGF growth factor 0.02 ug/ml). As NSCs are sensitive to environmental variations, cell handling protocol before loading into the chip is examined systematically (including dissociation, FACS sorting, etc.). To obtain the optimal results, NSCs spheres are collected and loaded into the chip 24 hours after fresh dissociation wherein each sphere contains ˜7 to 10 cells. […]
(§2) For image acquisition, a Nikon Ti-ECLIPSE microscope with an automated translation stage and a digital CMOS camera (ORCA-Flash 4.0, Hamamatsu, Japan) was used. […] Bright field and fluorescence images were acquired and analyzed using a customized MATLAB program (Mathworks, […]). The algorithm extracts single cell traces including position, nuclear and cytoplasm fluorescence level. For example, the 3T3 cell nuclear area in each image is identified via the fluorescent nuclear marker GFP, and then the mean value of the nuclear intensity of the p65-DsRed marker is measured, and plotted as a function of time.
(§3) To investigate the role of combinatorial or temporal ordering of signals in NSC differentiation, the inventors cultured NSCs under combinatorial and sequential applications of the six regulatory ligands (FIG. 8A, FIGS. 22 and 23). […] The inventors measured the ratio of the ligand-treated cells to untreated control for cell number and Hes5-GFP expression intensity. […] Multiple experiments were repeated resulting in nearly 3000 dynamic cultures analyzed. […]

NSCs [2] = assay: NSCs proliferation (cell number) under sequential ligand inputs (permutation test and decision tree analysis); format: cell-based, mouse; details: sequential input
Source text: as §1, §2, §3

[3] = system: Hes5-GFP expression in NSCs; assay: NSCs Hes5 expression under combinatorial ligand inputs (permutation test and decision tree analysis); format: cell-based, mouse; details: combinatorial input; for Hes5 expression, mean ratio relative to control: decision tree
Source text: (§4) Murine hematopoietic stem cells (HSC) are isolated by FACSAria III flow cytometer (BD Biosciences) as Lin−/c-Kit+/Sca-1+/CD48−/CD150+/CD34− (lineage, Lin: CD3e/CD11b/CD19/CD41/B220/Gr-1/Ter-119), which are approximately 50% pure HSCs. Macrophage colony-stimulating factor (M-CSF), a myeloid cytokine released during infection and inflammation, is employed to induce HSCs differentiation. Human CD34+ cells were isolated from mononuclear cells using EasySepTM human CD34 positive selection kit (Stemcell Technologies, Vancouver, BC, Canada). CD34+CD38−CD45RA−CD90+CD49f+ HSCs were sorted using a FACSAria III flow cytometer (BD Biosciences). Pro- and anti-inflammatory cytokines including TNF, IFN[…], IL-6, IP10 and MCP-1 are introduced into the cellular environment as single ligand and in combination. Embryonic NSCs with Hes-GFP and Dcx-RFP reporters were isolated at embryonic day 13.5 from a transgenic mice carrying Hes-GFP and Dcx-RFP using standard protocol (Woo, et al., 2009; Basak, et al., 2007). The resulting primary cells were verified to carry both Hes5-GFP and Dcx-RFP after isolation and allowed to grow for few passages before use in the experiments (Giachino, et al., 2009). NSCs were cultured as neurospheres in culture media (DMEM/F12+Glutamax (Gibco No:31331-028); 10 U/ml penicillin; 10 ug/ml Streptomycin; B27 supplement (1:50); FGF growth factor 0.02 ug/ml). As NSCs are sensitive to environmental variations, cell handling protocol before loading into the chip is examined systematically (including dissociation, FACS sorting, etc.). To obtain the optimal results, NSCs spheres are collected and loaded into the chip 24 hours after fresh dissociation wherein each sphere contains ˜7 to 10 cells. To avoid potential artifacts due to prolonged in vitro culture, only NSCs within 10 passages were used in the study.
For image acquisition, a Nikon Ti-ECLIPSE microscope with an automated translation stage and a digital CMOS camera (ORCA-Flash 4.0, Hamamatsu, Japan) was used. The stage and image acquisition was controlled via the NIS Elements software. Bright field and fluorescence images were acquired and analyzed using a customized MATLAB program (Mathworks, […]). The algorithm extracts single cell traces including position, nuclear and cytoplasm fluorescence level. For example, the 3T3 cell nuclear area in each image is identified via the fluorescent nuclear marker GFP, and then the mean value of the nuclear intensity of the p65-DsRed marker is measured, and plotted as a function of time.
(§5) To investigate the role of combinatorial or temporal ordering of signals in NSC differentiation, the inventors cultured NSCs under combinatorial and sequential applications of the six regulatory ligands (FIG. 8A, FIGS. 22 and 23). For each independent NSC culture on the chip, the inventors introduced either one ligand each day (sequential inputs), or a combination of the selected ligands over a six-day period (combinatorial inputs). The inventors measured the ratio of the ligand-treated cells to untreated control for cell number and Hes5-GFP expression intensity. Each chip experiment consisted of 63 combinatorial and 720 sequential stimulation experiments, with duplicates (FIG. 8B). Multiple experiments were repeated resulting in nearly 3000 dynamic cultures analyzed. The inventors subjected all experimental outputs of NSC cell numbers and Hes5 expression to regression and classification tree analyses. NSCs' cellular states were categorized into two groups: differentiation (with decreased Hes5 level and cell numbers) and self-renewal (with increased Hes5 level and cell numbers) (FIG. 8D).
In this work, the inventors use decision tree analysis to generate descriptive and predictive models which map measurements about cell phenotypic features (i.e., cell count and Hes5-GFP expression) to experimental conditions (i.e., sequential and combinatorial application of six regulatory ligands) (Breiman, 1984). […]

[4] = system: Hes5-GFP expression in NSCs; assay: NSCs Hes5 level with sole presence of one ligand, on-chip culture; format: cell-based, mouse
Description: FIG. 6B depicts a histogram of Hes5-GFP expression in NSCs before (red) and after (black) one week culture with 100 ng/ml PDGF. High levels of Hes5 in NSCs indicate maintenance of stem cell state, while reduced Hes5 indicates progress towards differentiation.
(§6) Murine hematopoietic stem cells (HSC) are isolated by FACSAria III flow cytometer (BD Biosciences) as Lin−/c-Kit+/Sca-1+/CD48−/CD150+/CD34− (lineage, Lin: CD3e/CD11b/CD19/CD41/B220/Gr-1/Ter-119), which are approximately 50% pure HSCs. Macrophage colony-stimulating factor (M-CSF), a myeloid cytokine released during infection and inflammation, is employed to induce HSCs differentiation. […]
as §2

NSCs [5] = assay: NSCs cell fate (self-renewal or differentiation) from Hes5 level and cell numbers under sequential stimulation; format: cell-based, mouse; details: for cell fate outcome: sequential input
Source text: as §4
as §5, with “NSCs' cellular states were categorized into two groups: differentiation (with decreased Hes5 level and cell numbers) and self-renewal (with increased Hes5 level and cell numbers) (FIG. 8D).” left out

human HSCs = format: cell-based; details: TNF with other participating cytokines
Description: FIG. 3C depicts a chart of long-term culture and TNF stimulation of human hematopoietic stem cells (HSCs). Cells were cultured on the microfluidic device in the absence of TNF (control) and 1 ng/ml TNF, for up to 5 days. […] N indicates cell numbers per chamber. […] D represents dynamic cytokine inputs, daily variation between 0.1 and 10 ng/ml.
Besides being a signaling protein involved in systemic inflammation, TNF-alpha is also widely employed to mimic the post-transplantation signaling environment (Mohabbat, et al., 2012). To mimic clinical hematopoietic stem cell transplantation (HSCT), different doses of TNF-alpha are directed to designated culture chambers housing HSCs by programmed medium exchange procedures. […] In both cases, cells proliferate at a similar, if not higher, rate than those in bulk experiments in traditional culture dishes.
as §6, with “differentiation. Human CD34+ cells were isolated from mononuclear cells using EasySepTM human CD34 positive selection kit (Stemcell Technologies, Vancouver, BC, Canada).” for “differentiation.”

NF-κB in 3T3 cells = assay: TNF-alpha induced NF-κB activation in 3T3 fibroblasts on chip; format: cell-based, mouse
Source text: The inventors took advantage of the long-term stable culture capability of the device and extended TNF-alpha induced NF-κB activation study in 3T3 fibroblasts for up to a week. The response of 3T3 cells to TNF-alpha stimulation is characterized by the nuclear translocation of transcription factor NF-κB, and visualized through automated fluorescence imaging (Kellogg, et al., 2015). Both single cells and a population of cells were successfully maintained in the present culture chambers, and were stimulated with series of TNF-alpha concentrations (0.001 to 100 ng/ml), which were simultaneously generated on-chip. […]
as §2

NSCs [6] = assay: NSCs proliferation (cell number) under combinatorial ligand inputs (permutation test and decision tree analysis); format: cell-based, mouse; details: ligands in isolation or as a pair (synergy)
Source text: as §6, with “differentiation. Human CD34+ cells were isolated from mononuclear cells using EasySepTM human CD34 positive selection kit (Stemcell Technologies, Vancouver, BC, Canada). CD34+CD38−CD45RA−CD90+CD49f+ HSCs were sorted using a FACSAria III flow cytometer (BD Biosciences).” for “differentiation.”
as §2, with “time. […]” for “time.”

## PDGF
[1]; decision tree, ligand present on the 1st day of culture
  Hes5 expression outcome: high Hes5 expression levels
[1]; DLL added at day 1, ligand applied at day 2
  Hes5 expression relative to control: 89.2 % of the control level
[1]; ligand added at day 1
  Hes5 expression relative to control: 126.6 % of the control
NSCs [2]; ligand added at day 1
  cell number relative to control: 85.4 % of the control
[3]; PDGF present, without DLL
  Hes5 expression, mean ratio relative to control: 1.22
[3]; PDGF present, without DLL, CXCL
  Hes5 expression, mean ratio relative to control: 1.37
[3]; PDGF present, without DLL, CXCL or EGF
  Hes5 expression, mean ratio relative to control: 1.56
[3]; ligand present
  Hes5 expression, mean ratio relative to control: ≥ 1.11
[3]; permutation test
  increase of Hes5 expression by a factor: 1.06 factor
[3]; permutation test, combined with DLL
  Hes5 expression relative to control: 99.3 % of the control level
[4]
  increase of Hes5 level from its initial value: around 25%
NSCs [5]; DLL in day-1, ligand moved to day-2
  cell fate outcome: promoting differentiation
NSCs [5]; ligand at day 1
  cell fate outcome: NSCs self-renewal

## IFNγ: cytokine combined with TNF on human HSCs
Human HSCs
  effect on TNF induced cell death: neutralize TNF induced cell death

## TNF-alpha
NF-κB in 3T3 cells; 0.1 and 0.2 ng/ml, first pulse, single cell level
  single cell response to pulse stimulation (NF-κB): all cells respond to the first pulse stimulation
NF-κB in 3T3 cells; prolonged incubation and stimulation for one week
  cytoplasm NF-κB level: proportional to TNF-alpha concentration

## EGF: signaling ligand whose receptor is highly expressed during mouse forebrain development (NSYPGCPSSYDGYCLNGGVCMHIESLDSYTCNCVIGYSGDRCQTRDLRWWELR; not fully specified; Epidermal growth factor; UniProt P01132 977-1029, looked up)
[1]; ligand added at day 1
  Hes5 expression relative to control: 86.8 % of the control
NSCs [2]; CXCL added at day 1, ligand added at day 2
  cell number raised by a factor: 1.19 factor
NSCs [2]; Jagged added at day 1, ligand added at day 2
  cell number raised by a factor: 1.38 factor
NSCs [2]; ligand added at day 1 alone
  effect on cell number: does not introduce significant increase of cell number
NSCs [6]
  increased cell number: 60%
NSCs [5]; six-ligand sequence, ligand application moved to day 6
  Hes5 expression: significant reduction in Hes5 expression
NSCs [5]; six-ligand sequence, ligand delivered on day 2
  Hes5 expression and cell numbers: high Hes5 expression levels and unchanged cell numbers
